As a reminder, the pIC50 is the IC50 on a negative log10 scale, so that one unit is a factor of ten.

pIC50: −log10 of the molar value.

From patent publication US9708336B2, “Metallo-beta-lactamase inhibitors” (priority 2014, dated 2017) come the findings set out here.

Assay [1] has as its target NDM-1 (Klebsiella pneumoniae, UniProt C7C422). The assay is described as follows: biochemical. It is filed as biochemical. As to conditions: NDM-1 enzyme, CCF2-FA substrate; read-out: NDM-1 IC50.
The subject of assay [2] is Klebsiella pneumoniae expressing VIM-1 (IHMA599644). The assay can be described thus: Antibiotic potentiation activity: synergistic concentration (MITC95) with imipenem, OD600 growth. As to conditions: Klebsiella pneumoniae IHMA599644 (VIM-1), 95% growth inhibition. It is filed as cell-based. Put shortly: (§1)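 Clinical MBL-producing strains (E. coli NDM-1, S. marcescens IMP-1, K. pneumoniae VIM-1) from overnight plates were diluted 1:100 into 1.1×CAMHB. Compound was tested with imipenem at 4 μg/ml (optionally 1 μg/ml) or without it. After 22–24 h at 35 °C, growth was read as OD600.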

Assay [3] has as its system Escherichia coli expressing NDM-1 (CLB30016). The assay is described as above. It is filed as cell-based. As to conditions: (CLB30016, NDM-1), 95% growth inhibition. An outline of the steps:
as §1

Assay [4] concerns Serratia marcescens expressing IMP-1 (CL5741). The description is as above. It is filed as cell-based. As to conditions: Serratia marcescens CL5741 (IMP-1), 95% growth inhibition. Put shortly:
as §1

In assay [5] the target is IMP-1 (Serratia marcescens, UniProt P52699). The assay is described as follows: biochemical. Format: biochemical. To be noted: IMP-1 enzyme, CCF2-FA substrate; read-out: IMP-1 IC50.
Chain of IMP-1 (P52699 whole entry, looked up): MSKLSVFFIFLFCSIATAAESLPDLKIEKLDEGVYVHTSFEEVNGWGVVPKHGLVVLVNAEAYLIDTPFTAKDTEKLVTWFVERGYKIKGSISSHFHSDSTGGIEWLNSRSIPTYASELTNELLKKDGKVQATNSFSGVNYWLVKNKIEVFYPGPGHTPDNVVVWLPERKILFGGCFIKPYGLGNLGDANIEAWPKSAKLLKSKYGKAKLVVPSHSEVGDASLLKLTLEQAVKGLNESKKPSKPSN
The target in assay [6] is VIM-1 (Pseudomonas aeruginosa (strain ATCC 15692 / DSM 22644 / CIP 104116 / JCM 14847 / LMG 12228 / 1C / PRS 101 / PAO1), UniProt A0A0F7KYQ8). The assay can be described thus: Enzyme activity: determination of IC50, fluorescence assay with CCF2-FA substrate (VIM-1). It is filed as biochemical. As to conditions: VIM-1 enzyme, CCF2-FA substrate; read-out: VIM-1 IC50.

Chain of NDM-1 (C7C422 whole entry, looked up, species assumed): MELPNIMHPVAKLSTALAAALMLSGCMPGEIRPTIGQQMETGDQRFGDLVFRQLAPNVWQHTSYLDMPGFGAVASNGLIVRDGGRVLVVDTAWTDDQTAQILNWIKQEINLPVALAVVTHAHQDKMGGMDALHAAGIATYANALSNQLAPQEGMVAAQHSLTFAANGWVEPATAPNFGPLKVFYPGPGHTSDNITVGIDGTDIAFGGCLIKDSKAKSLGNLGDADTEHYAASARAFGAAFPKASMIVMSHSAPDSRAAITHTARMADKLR

Consider `Nc1cc(-c2cccc(S(N)(=O)=O)c2-c2nn[nH]n2)cnc1N` [Example 523, 3-(5,6-Diaminopyridin-3-yl)-2-(2H-tetrazol-5-yl)benzenesulfonamide], for which the pIC50 in assay [1] is 7.70; in assay [5] it was 5.92; in assay [6] it was 6.65. For the same compound, in assay [2], the “Klebsiella pneumoniae MITC95” value turned out to be 4.125 µM. Moreover, the “Escherichia coli MITC95” value in assay [3] amounted to 0.125 µM. In addition, in assay [4], the “Serratia marcescens MITC95” value was found to be 9.375 µM.
For the compound `N=C(N)NC1CCC(CCc2ccc(C(F)(F)F)c(S(N)(=O)=O)c2-c2nn[nH]n2)CC1` (stereo not drawn) [Example 524, 3-(2-(4-Guanidinocyclohexyl)ethyl)-2-(2H-tetrazol-5-yl)-6-(trifluoromethyl)benzenesulfonamide], the pIC50 was 7.61 in assay [1], 8.29 in assay [5] and 8.98 in assay [6]. In assay [2], the “Klebsiella pneumoniae MITC95” value was determined as 12.5 µM. In addition, the “Escherichia coli MITC95” value in assay [3] is 12.5 µM. Moreover, in assay [4], the “Serratia marcescens MITC95” value was determined as 6.25 µM.
Regarding `NS(=O)(=O)c1c(C(F)(F)F)ccc(-c2cccc3c2CNC3=O)c1-c1nn[nH]n1` [Example 525, 3-(1-Oxoisoindolin-4-yl)-2-(2H-tetrazol-5-yl)-6-(trifluoromethyl)benzenesulfonamide], the results for the pIC50 in assay [1], in assay [5] and in assay [6] were 9.27, 8.16 and 10.05, respectively. For the same compound, in assay [2], the “Klebsiella pneumoniae MITC95” value turned out to be 4.688 µM. Besides, the “Escherichia coli MITC95” value in assay [3] is 3.125 µM. For the same compound, the “Serratia marcescens MITC95” value in assay [4] was found to be 12.5 µM.
As to `Nc1cccc2c(-c3ccc(C(F)(F)F)c(S(N)(=O)=O)c3-c3nn[nH]n3)cc(C(=O)O)nc12` [Example 526, 8-Amino-4-(3-sulfamoyl-2-(2H-tetrazol-5-yl)-4-(trifluoromethyl)phenyl)quinoline-2-carboxylic acid], the pIC50 in assay [1] is 8.73; in assay [5] it was 8.34; in assay [6], 8.80. Besides, the “Klebsiella pneumoniae MITC95” value in assay [2] turned out to be 50 µM. Moreover, in assay [3], the “Escherichia coli MITC95” value was 25 µM. Moreover, the “Serratia marcescens MITC95” value in assay [4] turned out to be 100 µM.
Consider `NC(=O)c1ccc(-c2ccc(C(F)(F)F)c(S(N)(=O)=O)c2-c2nn[nH]n2)cn1` [Example 527, 5-(3-Sulfamoyl-2-(2H-tetrazol-5-yl)-4-(trifluoromethyl)phenyl)picolinamide], for which the pIC50 in assay [1] was 8.15; in assay [5], 7.97; in assay [6], 8.54. The “Klebsiella pneumoniae MITC95” value in assay [2] came out at 12.5 µM. The “Escherichia coli MITC95” value in assay [3] was determined as 6.25 µM. The “Serratia marcescens MITC95” value in assay [4] amounted to 12.5 µM.
Regarding `NC(=O)c1cc2cccc(-c3ccc(C(F)(F)F)c(S(N)(=O)=O)c3-c3nn[nH]n3)c2[nH]1` [Example 528, 7-(3-Sulfamoyl-2-(2H-tetrazol-5-yl)-4-(trifluoromethyl)phenyl)-1H-indole-2-carboxamide], the values for the pIC50 in assay [1], in assay [5] and in assay [6] were 10.61, 9.37 and 9.84, respectively. Besides, in assay [2], the “Klebsiella pneumoniae MITC95” value worked out at 12.5 µM. For the same compound, the “Escherichia coli MITC95” value in assay [3] is 1.563 µM. Moreover, the “Serratia marcescens MITC95” value in assay [4] stood at 3.125 µM.
As to `NS(=O)(=O)c1c(C2CC2)ccc(-c2cccc3ncccc23)c1-c1nn[nH]n1` [Example 529, 6-Cyclopropyl-3-(quinolin-5-yl)-2-(2H-tetrazol-5-yl)benzenesulfonamide], the negative-log IC50 (pIC50) in assay [1] was 8.66; in assay [5], 8.20; in assay [6], 9.00. Moreover, the “Klebsiella pneumoniae MITC95” value in assay [2] came out at 9.375 µM. The “Escherichia coli MITC95” value in assay [3] is 3.906 µM. The “Serratia marcescens MITC95” value in assay [4] turned out to be 0.7813 µM.
On to `NS(=O)(=O)c1c(CCO)ccc(-c2cccc3ncccc23)c1-c1nn[nH]n1` [Example 530, 6-(2-Hydroxyethyl)-3-(quinolin-5-yl)-2-(2H-tetrazol-5-yl)benzenesulfonamide], for which the pIC50 in assay [1] was 8.94; in assay [5], 7.59; in assay [6], 9.52. For the same compound, the “Klebsiella pneumoniae MITC95” value in assay [2] came out at 4.688 µM. Also, the “Escherichia coli MITC95” value in assay [3] stood at 3.125 µM. In addition, in assay [4], the “Serratia marcescens MITC95” value was determined as 0.5859 µM.
Turning to `Nc1nc2c(-c3ccc(CCO)c(S(N)(=O)=O)c3-c3nn[nH]n3)cccc2s1` [Example 531, 3-(2-Aminobenzo[d]thiazol-4-yl)-6-(2-hydroxyethyl)-2-(2H-tetrazol-5-yl)benzenesulfonamide], the figures for the pIC50 in assay [1], in assay [5] and in assay [6] were 8.68, 7.49 and 8.08, respectively. In addition, the “Klebsiella pneumoniae MITC95” value in assay [2] was 12.5 µM. The “Escherichia coli MITC95” value in assay [3] was determined as 6.25 µM. The “Serratia marcescens MITC95” value in assay [4] turned out to be 12.5 µM.
Regarding `Nc1nc2c(-c3ccc(C(F)CO)c(S(N)(=O)=O)c3-c3nn[nH]n3)cccc2s1` (stereo not drawn) [Example 532, 3-(2-Aminobenzo[d]thiazol-4-yl)-6-(1-fluoro-2-hydroxyethyl)-2-(2H-tetrazol-5-yl)benzenesulfonamide], the pIC50 in assay [1] was 9.22; in assay [5] it was 8.19; in assay [6], 8.40. Moreover, the “Klebsiella pneumoniae MITC95” value in assay [2] came to 12.5 µM. For the same compound, the “Escherichia coli MITC95” value in assay [3] was 12.5 µM. The “Serratia marcescens MITC95” value in assay [4] stood at 12.5 µM.
Turning to `Nc1nc2c(-c3ccc(CCCO)c(S(N)(=O)=O)c3-c3nn[nH]n3)cccc2s1` [Example 533, 3-(2-Aminobenzo[d]thiazol-4-yl)-6-(3-hydroxypropyl)-2-(2H-tetrazol-5-yl)benzenesulfonamide], the pIC50 in assay [1] is 9.06; in assay [5] it was 7.78; in assay [6], 8.54. For the same compound, the “Klebsiella pneumoniae MITC95” value in assay [2] came to 12.5 µM. For the same compound, the “Escherichia coli MITC95” value in assay [3] turned out to be 3.125 µM. Also, the “Serratia marcescens MITC95” value in assay [4] is 12.5 µM.
In the case of `Nc1nc2c(-c3ccc(CCCCCO)c(S(N)(=O)=O)c3-c3nn[nH]n3)cccc2s1` [Example 534, 3-(2-Aminobenzo[d]thiazol-4-yl)-6-(5-hydroxypentyl)-2-(2H-tetrazol-5-yl)benzenesulfonamide], the pIC50 in assay [1] was 9.35; in assay [5], 8.02; in assay [6], 9.07. The “Klebsiella pneumoniae MITC95” value in assay [2] was 12.5 µM. The “Escherichia coli MITC95” value in assay [3] amounted to 6.25 µM. Further, the “Serratia marcescens MITC95” value in assay [4] was found to be 25 µM.
In the case of `Nc1nc2c(-c3ccc(CC4CCC4)c(S(N)(=O)=O)c3-c3nn[nH]n3)cccc2s1` [Example 535, 3-(2-Aminobenzo[d]thiazol-4-yl)-6-(cyclobutylmethyl)-2-(2H-tetrazol-5-yl)benzenesulfonamide], the pIC50 in assay [1] was 9.07; in assay [5] it was 8.16; in assay [6], 8.57. Besides, the “Klebsiella pneumoniae MITC95” value in assay [2] worked out at 50 µM. Besides, in assay [3], the “Escherichia coli MITC95” value turned out to be 6.25 µM. In assay [4], the “Serratia marcescens MITC95” value stood at 25 µM.
In the case of `Nc1ncc(-c2ccc(-c3cccc4sc(N)nc34)c(-c3nn[nH]n3)c2S(N)(=O)=O)s1` [Example 536, 3-(2-Aminobenzo[d]thiazol-4-yl)-6-(2-aminothiazol-5-yl)-2-(2H-tetrazol-5-yl)benzenesulfonamide], the results for the negative logarithm of the IC50 (pIC50) in assay [1], in assay [5] and in assay [6] were 8.57, 7.40 and 8.38, respectively. Besides, the “Klebsiella pneumoniae MITC95” value in assay [2] was 25 µM. Also, the “Escherichia coli MITC95” value in assay [3] was found to be 6.25 µM. In assay [4], the “Serratia marcescens MITC95” value worked out at 50 µM.
Regarding `Nc1nc2c(-c3ccc(CCC(=O)O)c(S(N)(=O)=O)c3-c3nn[nH]n3)cccc2s1` [Example 538, 3-(4-(2-Aminobenzo[d]thiazol-4-yl)-2-sulfamoyl-3-(2H-tetrazol-5-yl)phenyl)propanoic acid], the negative logarithm of the IC50 (pIC50) in assay [1] is 8.85; in assay [5], 7.27; in assay [6], 7.39. Moreover, the “Klebsiella pneumoniae MITC95” value in assay [2] worked out at 100 µM. The “Escherichia coli MITC95” value in assay [3] stood at 6.25 µM. In addition, in assay [4], the “Serratia marcescens MITC95” value was found to be 50 µM.
In the case of `NC(=O)CCc1ccc(-c2cccc3sc(N)nc23)c(-c2nn[nH]n2)c1S(N)(=O)=O` [Example 539, 3-(4-(2-Aminobenzo[d]thiazol-4-yl)-2-sulfamoyl-3-(2H-tetrazol-5-yl)phenyl)propanamide], the pIC50 in assay [1] was 9.72; in assay [5], 8.12; in assay [6], 8.73. For the same compound, the “Klebsiella pneumoniae MITC95” value in assay [2] turned out to be 25 µM. The “Escherichia coli MITC95” value in assay [3] stood at 3.125 µM. In addition, the “Serratia marcescens MITC95” value in assay [4] is 12.5 µM.
`Nc1nc2c(-c3ccc(CCC4CCC(N)CC4)c(S(N)(=O)=O)c3-c3nn[nH]n3)cccc2s1` (stereo not drawn) [Example 541, 3-(2-Aminobenzo[d]thiazol-4-yl)-6-(2-(4-aminocyclohexyl)ethyl)-2-(2H-tetrazol-5-yl)benzenesulfonamide]: the pIC50 is 9.88 in assay [1], 8.14 in assay [5] and 8.29 in assay [6]. For the same compound, in assay [2], the “Klebsiella pneumoniae MITC95” value was 25 µM. In addition, the “Escherichia coli MITC95” value in assay [3] is 3.125 µM. For the same compound, the “Serratia marcescens MITC95” value in assay [4] stood at 6.25 µM.
For `NS(=O)(=O)c1c(CCCCCO)ccc(CCCCCO)c1-c1nn[nH]n1` [Example 542, 3,6-Bis(5-hydroxypentyl)-2-(2H-tetrazol-5-yl)benzenesulfonamide], the figures for the pIC50 in assay [1], in assay [5] and in assay [6] were 7.94, 8.10 and 8.19, respectively. Also, the “Klebsiella pneumoniae MITC95” value in assay [2] turned out to be 100 µM. In addition, the “Escherichia coli MITC95” value in assay [3] worked out at 25 µM. The “Serratia marcescens MITC95” value in assay [4] worked out at 6.25 µM.
